Several values for one entry are separate records, joined by “and”; a condition that tells them apart may be missing. Equal entries are not always repeated.
Key:
Human CYP17 [1] = molecular target: T1, Human CYP17 (Homo sapiens, UniProt P05093); parameters: method as in Sergejew and Hartmann, 1994; conditions: reference inhibitor; ref Sergejew and Hartmann, 1994; cited from earlier work
T1 construct: made in house; host or cells: Escherichia coli (5,000 g sediment of the homogenate)
T1 sequence (P05093 1-508): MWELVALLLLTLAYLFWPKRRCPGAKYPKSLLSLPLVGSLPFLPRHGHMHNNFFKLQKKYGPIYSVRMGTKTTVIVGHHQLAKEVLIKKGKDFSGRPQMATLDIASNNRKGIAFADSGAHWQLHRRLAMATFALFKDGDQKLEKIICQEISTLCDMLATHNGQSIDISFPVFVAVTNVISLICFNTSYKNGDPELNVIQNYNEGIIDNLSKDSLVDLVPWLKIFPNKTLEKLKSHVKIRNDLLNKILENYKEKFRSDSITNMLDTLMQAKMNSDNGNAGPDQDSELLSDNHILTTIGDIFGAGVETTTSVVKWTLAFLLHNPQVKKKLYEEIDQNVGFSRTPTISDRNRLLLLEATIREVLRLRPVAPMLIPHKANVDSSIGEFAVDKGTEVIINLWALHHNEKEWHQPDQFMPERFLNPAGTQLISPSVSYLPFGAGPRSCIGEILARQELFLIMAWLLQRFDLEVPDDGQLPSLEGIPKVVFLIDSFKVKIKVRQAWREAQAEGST

CYP11B2 = conditions: Figure 3, training compounds; ref Meredith et al., 2013; read-out: hCYP11B2 IC50; cited from earlier work
CYP11B1 = conditions: Figure 3, training compounds; ref Meredith et al., 2013; read-out: hCYP11B1 IC50; cited from earlier work
human CYP11B1 = molecular target: T2, human CYP11B1 (Homo sapiens, UniProt P15538); assay: CYP11B1 inhibition assay in V79MZh cells; type: cell-based; conditions: for inhibition at 10 µM: at 10 μM concentration, V79MZh cells; for IC50: human CYP11B1 expressed in hamster V79MZh cells, mean of at least three experiments
T2 construct: expressed in transfected cells; host or cells: hamster V79MZh cells
T2 sequence (P15538 25-503): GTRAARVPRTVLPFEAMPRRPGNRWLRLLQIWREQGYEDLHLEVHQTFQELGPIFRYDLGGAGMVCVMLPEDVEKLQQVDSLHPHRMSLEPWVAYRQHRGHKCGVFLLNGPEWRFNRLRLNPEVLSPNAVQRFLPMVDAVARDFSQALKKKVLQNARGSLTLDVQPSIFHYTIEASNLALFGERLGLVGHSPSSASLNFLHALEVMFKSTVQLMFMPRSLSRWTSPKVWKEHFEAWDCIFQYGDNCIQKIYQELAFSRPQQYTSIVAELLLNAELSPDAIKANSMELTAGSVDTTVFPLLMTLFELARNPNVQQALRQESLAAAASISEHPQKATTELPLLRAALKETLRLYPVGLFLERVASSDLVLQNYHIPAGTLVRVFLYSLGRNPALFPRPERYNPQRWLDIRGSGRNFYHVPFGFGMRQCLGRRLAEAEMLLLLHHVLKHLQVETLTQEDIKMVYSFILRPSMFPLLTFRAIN
Protocol: (§1) The selected potential inhibitors were dissolved in DMSO at a concentration of 10 mM to generate stock solutions. Various aliquots were then made from fresh stock solutions and each aliquot was tested only once.
(§2) The selected hits were evaluated for their inhibition of human CYP11B1 and CYP11B2 enzymes expressed in hamster V79MZh cells. Approximately […] V79MZh cells were cultured in 24-well cell culture plates for 24 h. The area of each well was 1.9 cm^2. The cells were exposed to various concentrations of inhibitor solutions. The reactions were started by incubating the cells with [^3H]11-deoxycorticosterone. The incubation time for CYP11B1 cells was 15–60 and 50–120 min for CYP11B2 cells. The reactions were stopped by extracting the supernatant with cold ethyl acetate at 4°C. Samples were mixed (10 min), and centrifuged (12,500 rpm). The organic (upper) layer was separated into fresh Eppendorf tubes and dried. The steroids were re-dissolved in methanol-water (65–35%) and were analyzed by radio-HPLC (Denner et al., [1995a]; Ehmer et al., [2002]).

Human CYP17 [2] = molecular target: T1, Human CYP17; assay: CYP17 inhibition assay; type: biochemical; conditions: at 10 μM concentration; for CYP17 inhibition: human CYP17 from Escherichia coli, n.i. = not inhibited
Protocol: The inhibition of CYP17 was investigated using the 5,000 g sediment of homogenized Escherichia coli (Ehmer et al., [2000]). Human CYP17 along with NADPH-P450 reductase was used to perform the assay as described previously. The incubation time for the reaction was 30 min at 37°C. The reaction was started by adding [^3H]-progesterone, and was quenched with 1 M HCl. The reaction mixture was extracted twice with ethyl acetate at 4°C in order to avoid impurities. The samples were dried, prepared with methanol, and analyzed with radio-HPLC. DSMO was used as negative control.

human CYP11B2 = molecular target: T3, human CYP11B2 (Homo sapiens, UniProt P19099); assay: CYP11B2 inhibition assay in V79MZh cells; type: cell-based; conditions: for inhibition at 10 µM: at 10 μM concentration, V79MZh cells; for IC50: human CYP11B2 expressed in hamster V79MZh cells, mean of at least three experiments
T3 construct: expressed in transfected cells; host or cells: hamster V79MZh cells
T3 sequence (P19099 25-503): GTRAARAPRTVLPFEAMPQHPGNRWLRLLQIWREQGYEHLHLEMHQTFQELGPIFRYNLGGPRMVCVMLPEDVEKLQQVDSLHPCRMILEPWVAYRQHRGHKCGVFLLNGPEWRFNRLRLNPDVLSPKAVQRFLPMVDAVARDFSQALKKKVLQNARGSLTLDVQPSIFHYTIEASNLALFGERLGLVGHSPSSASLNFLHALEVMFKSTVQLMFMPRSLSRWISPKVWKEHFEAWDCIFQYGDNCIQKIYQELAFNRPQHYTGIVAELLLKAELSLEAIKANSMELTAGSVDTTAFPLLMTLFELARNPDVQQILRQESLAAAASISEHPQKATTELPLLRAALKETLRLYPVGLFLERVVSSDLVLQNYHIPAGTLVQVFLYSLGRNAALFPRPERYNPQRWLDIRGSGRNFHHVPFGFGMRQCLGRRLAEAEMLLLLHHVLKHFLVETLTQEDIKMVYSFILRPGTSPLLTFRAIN
Protocol: as §1, §2

Row | SMILES | inhibition at 10 µM (human CYP11B1) | IC50 (human CYP11B1) | inhibition at 10 µM (Human CYP17 [2]) | CYP17 inhibition (Human CYP17 [2]) | inhibition at 10 µM (human CYP11B2) | IC50 (human CYP11B2) | selectivity factor for CYP11B1 inhibition over CYP11B2 (human CYP11B1; from IC50 values) | IC50 (Human CYP17 [1]) | IC50 (CYP11B2) | IC50 (CYP11B1)
1 | C[C@]12CC[C@H](O)CC1=CC[C@@H]1[C@@H]2CC[C@]2(C)C(c3cccnc3)=CC[C@@H]12 [Abiraterone] | – | – | – | – | – | – | – | 100 nM | – | –
2 | N#Cc1ccc([C@@H]2CCCCc3cncn32)c(-c2ccc(F)cc2)c1 [Compound 4] | – | – | – | – | – | – | – | – | 0.3 nM | 0.4 nM
3 | N#Cc1ccc(C2(C(=O)OCc3ccc(F)cc3)CCc3cncn32)c(Cl)c1 (stereo not drawn) [Compound 5] | – | – | – | – | – | – | – | – | 3.8 nM | < 0.1 nM
4 | CC(C)CC(=O)Nc1ccc(Cc2ccncc2)cc1 [Compound 8] | > 50% | 3040 ± 720 nM | ≤ 3% | n.i.^e | > 50% | 2770 ± 480 nM | – | – | – | –

Further lines, with some results ahead:

Row | inhibition at 10 µM (human CYP11B1) | IC50 (human CYP11B1) | inhibition at 10 µM (Human CYP17 [2]) | CYP17 inhibition (Human CYP17 [2]) | inhibition at 10 µM (human CYP11B2) | IC50 (human CYP11B2) | selectivity factor for CYP11B1 inhibition over CYP11B2 (human CYP11B1; from IC50 values) | SMILES | IC50 (Human CYP17 [1]) | IC50 (CYP11B2) | IC50 (CYP11B1)
5 | > 50% | 210 ± 40 nM | ≤ 3% | n.i. | > 50% | 80 ± 5 nM | – | CC(OCc1ccc(F)cc1)n1ccnc1 (stereo not drawn) [Compound 9] | – | – | –
6 | > 50% | 130 ± 20 nM | ≤ 3% | n.i. | > 50% | 110 ± 20 nM | – | COc1cc(Cl)c(S(=O)(=O)n2ccnc2)cc1Cl [Compound 10] | – | – | –
7 | – | 2500 nM and 2520 nM | – | – | – | 15600 ± 8450 nM | 6 | CN(C)C(c1ccccc1)c1nnnn1-c1ccc(Cl)cc1 (stereo not drawn) [Compound 11] | – | – | –
8 | 33 ± 6% | – | ≤ 3% | n.i. | – | 1100 nM and 1120 nM | – | c1ccc2c(-c3nn4cnnc4s3)cccc2c1 [Compound 12] | – | – | –
